For 20 compounds, TGI results are on record in PubChem BioAssay (NCI).

Structures are written as SMILES.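 96-well plates; 48 h exposure; 5 concentrations. Endpoints by linear interpolation between flanking doses. Not reached: highest tested concentration assigned. TGI marks complete inhibition of growth.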

Common to all, as to assay: inhibition of tumour cell growth, NCI panel, 48 h
Assay [1] concerns HOP-62 NSCLC.
Assay [2] has as its system M14 melanoma.
In assay [3] the test system is SF-295 CNS.
The test system of assay [4] is SN12C renal.
Assay [5] has as its system SW-620 colon.
For assay [6], the system named is T-47D breast.
Assay [7] concerns TK-10 renal.

`CC(CN1NC12CCCC2)N1NC12CCCC2` (stereo not given): the TGI in assay [1], in assay [2], in assay [3], in assay [4], in assay [5] and in assay [6] was greater than 100 µM in each case. For the same compound, the TGI in assay [7] is greater than 100 µM.
On to `CCCCNC(=O)OCCN=c1c2ccccc2ccc2ccccc12`, for which the TGI in assay [1], in assay [2], in assay [3], in assay [4], in assay [5] and in assay [6] was greater than 100 µM in each case. The compound also yielded a TGI in assay [7] greater than 100 µM.
In the case of `CC1(C)CNC(=O)C2(CCCO2)CNC(C)(C)CNC(=O)C2(CCCO2)CN1` (stereo not given), the TGI in assay [1], in assay [2], in assay [3], in assay [4], in assay [5] and in assay [6] was greater than 10 µM each time. This compound also had a TGI in assay [7] greater than 10 µM.
In the case of `COC(=O)c1c(O)c(C#N)c2[nH]c3ccccc3n2c1=O`, the TGI in assay [1], in assay [2], in assay [3], in assay [4], in assay [5] and in assay [7] was greater than 100 µM throughout.
For the compound `CC[C@@H]1/C=C/C=C/C[C@H](C)[C@@H](O)[C@@H](C)C(=O)[C@H](C)[C@@H](O)[C@H](C)C(=O)[C@H](C)[C@@H](O)[C@H](C)/C=C/C(=O)O[C@H]2[C@@H](C)[C@@H](CC1)O[C@@]1(CC[C@@H](C)[C@@H](CC(C)O)O1)[C@@H]2C` (stereo not given in full), the TGI in assay [1] is greater than 25 µM; in assay [2], greater than 14.7 µM; in assay [4], 9.9 µM; in assay [5], greater than 25 µM; in assay [7] it was greater than 23.6 µM.
For the compound `CC(C)OC(=O)NCCn1cc(-c2ccccc2)nn1`, the TGI in assay [1], in assay [2], in assay [3], in assay [4] and in assay [7] was greater than 100 µM each time.
In the case of `O=C(O)c1cc(CCc2ccc(O)c(O)c2)ccc1O`, the TGI in assay [1], in assay [2], in assay [3], in assay [4], in assay [5] and in assay [6] was greater than 100 µM in each case.
For `O=C(c1ccc2ccccc2c1)C1(I)S(=O)(=O)OCCOS1(=O)=O`, the TGI in assay [1] is greater than 100 µM; in assay [2], greater than 100 µM; in assay [3] it was 0.0298 µM; in assay [4], greater than 100 µM; in assay [7] it was greater than 100 µM.
`COc1cc([C@@H]2c3cc4c(cc3[C@H](OC3OC5COC(c6ccco6)OC5C(O)C3O)C3COC(=O)[C@@H]32)OCO4)cc(OC)c1OC` (stereo not given in full): the TGI in assay [1], in assay [2], in assay [3], in assay [5], in assay [6] and in assay [7] was greater than 100 µM each time.
For the compound `Brc1ccc(C2=NCSC(c3ccc(Br)cc3)=N2)cc1`, the TGI in assay [1] was greater than 100 µM; in assay [2], greater than 100 µM; in assay [3] it was greater than 100 µM; in assay [4], greater than 100 µM; in assay [5], greater than 100 µM; in assay [7], 53.8 µM.
As for `Cc1nnc2n1N=C(c1cc(F)c(Cl)cc1Cl)/C(=C/c1ccc(-c3ccc([N+](=O)[O-])cc3)o1)S2`, the TGI in assay [1], in assay [2], in assay [3], in assay [4], in assay [5] and in assay [6] was greater than 100 µM throughout.
For the compound `CC(=O)c1ccc(Br)cc1NC1=CC(=O)c2ncccc2C1=O`, the TGI in assay [1] worked out at 13.1 µM; in assay [2], 10.6 µM; in assay [3], 14.3 µM; in assay [4], 19.1 µM; in assay [6], 9.37 µM; in assay [7], 31.4 µM.
For the compound `COc1ccc(N2C(=O)c3cc([N+](=O)[O-])cnc3S2(=O)=O)cc1`, the TGI in assay [1], in assay [3], in assay [4], in assay [5] and in assay [7] was greater than 100 µM in each case.
In the case of `COC(=NC(C)C)NC(C)C`, the TGI in assay [1], in assay [2], in assay [4], in assay [5], in assay [6] and in assay [7] was greater than 100 µM each time.
For the compound `CN(C)CCNc1ccc(NCC[N+](C)(C)Cc2ccc([N+](=O)[O-])cc2)c2c1C(=O)c1c(O)ccc(O)c1C2=O`, the TGI in assay [1], in assay [4], in assay [5] and in assay [6] was greater than 100 µM in each case.
Regarding `Cc1nc2ccc(F)cc2c2c1CCS2`, the TGI in assay [1], in assay [3], in assay [5], in assay [6] and in assay [7] was greater than 100 µM each time.
On to `Clc1ccc(/C=C/c2nc(-c3ccccc3)cn3c2nc2ccccc23)cc1Cl`, for which the TGI in assay [1], in assay [2], in assay [4], in assay [5], in assay [6] and in assay [7] was greater than 100 µM throughout.
Turning to `COC(=O)C(Cc1ccccc1)NC(=O)CSc1nnc(COc2ccc(Cl)cc2)n1-c1ccccc1` (stereo not given), the TGI was 45 µM in assay [1]; 35.1 µM in assay [2]; 48.9 µM in assay [4]; greater than 100 µM in assay [5]; greater than 100 µM in assay [6]; 40 µM in assay [7].
Consider `C/C=C1/CC(C(=O)OC)N(C(=O)OCc2ccccc2)C1=S` (stereo not given), for which the TGI in assay [1], in assay [2], in assay [3], in assay [5] and in assay [7] was greater than 100 µM throughout.
For `CC(=O)N1C=Cc2c(c(C)c3c([nH]c4ccccc43)c2C)C1`, the TGI in assay [1] amounted to 17.5 µM; in assay [2] it was 20.9 µM; in assay [3], 23.8 µM; in assay [4] it was 20.3 µM; in assay [5], 7.47 µM; in assay [7] it was 24.5 µM.
